Measurements published in patent publication US20100092575A1, “Method of making treatment materials and using same to treat algae and/or pests” (priority 2004, published 2010).

What was measured:
[1] = aqueous; cited from earlier work
[2] = tested on: flora and fauna in the water feature; conditions: previous treatment method of the water hazard
Excerpt: A golf course water hazard in Northern California contained large mats (i.e., growths) of string algae during the summer months. The algae were predominantly confined to the edges of the water body. […] Furthermore, a special permit is needed to apply toxic copper sulfate.

SMILES | pH values at which decomposition significantly increases [1] | effect on flora and fauna in the water feature [2]
OO [hydrogen peroxide] | greater than 6 | –
O=S(=O)([O-])[O-].[Cu+2] [copper sulfate] | – | killed most of the flora and fauna
